How the values were obtained:
Format in all cases: cell-based, human
[1] = test system: H2AX; assay: H2AX phosphorylation after gemcitabine, Panc-1 cells; details: control Panc-1 cells, gemcitabine 50 uM
Excerpt: […] Top, flowcytometric analysis of γH2AX and propidium iodide staining of DNA content. […] Bottom, comparison of the total DNA content of the population (black) versus the γH2AX-positive fraction (green). Results are representative 3 separate experiments.

[2] = test system: p53 and Chk1; assay: Phosphorylation of p53 and Chk1 in response to gemcitabine, Panc-1 cells; details: gemcitabine 10 μM; control shRNA Panc-1 cells
Protocol: To further investigate the role of ATDC in the DNA damage response, the effect of silencing ATDC on phosphorylation of p53 and Chk1 was investigated. In response to gemcitabine (10 μM), replication forks stall and the ATR signaling cascade is activated, which phosphorylates and activates several proteins critical to inducing the G1-S cell cycle checkpoint, including p53 and Chk1 (see, e.g., Ljungman M, Mutation Res 2005; 577: 203-216).

[3] = test system: ATDC; assay: ATDC nuclear foci by immunofluorescence after gemcitabine, Panc-1 cells; details: gemcitabine (amount/time); 50 uM
Excerpt: (A). Panc1 cells exposed to IR (5 Gy, 1 hr) were fixed and costained with anti-ATDC (red) and anti-γH2AX (green) antibodies. […] Cell nuclei were counterstained with DAPI (blue). (B) Panc-1 cells exposed to IR (5 Gy, 1 hr) and co-immunostained with anti-ATDC antibody (red) and anti-p-ATM antibody (green). Co-localization of ATDC (red) with p-ATM (green) is observed in yellow in the merged image. Experiments were repeated twice with similar results. […] Results representative of 3 separate experiments.
It has been well-documented that in response to DNA damage, numerous proteins involved in the DNA damage response traffic to discrete nuclear foci. […] Using double immunofluorescence staining, it was observed that ATDC co-localized with γH2AX (FIG. 7A), presumably at DNA damage foci. […] ATDC co-localized with ATR following gemcitabine treatment (FIG. 7B). The time course of ATDC localizing to DNA damage foci was similar to the time course of the formation of foci of phosphorylated H2AX. Whether ATDC is required for the formation of γH2AX and/or ATR foci in pancreatic cancer cells following gemcitabine was investigated.

[4] = test system: ATDC; assay: ATDC phosphorylation in transfected HEK293 cells
Protocol: (B) Knockdown of ATM by specific ATM shRNA prevents IR induced phosphorylation of ATDC in Panc1 cells (n=3). (C) IR-dependent phosphorylation of ATDC occurs at serine 550. HEK 293 cells over-expressing wild type or S550A mutant ATDC were treated with IR (10 Gy) for varyin times (0-60 min). Cell lysates were harvested and co-immunoprecipitation experiments were performed using anti-ATDC and anti-phospho-serine/threonine antibodies. Results are representative of three separate experiments (D) Gemcitabine induces phosphorylation of ATDC in transfected HEK293 cells.
ATDC has overlapping function with ATM in cell cycle checkpoint activation and that trafficking of ATDC to DNA repair foci was dependent on ATM (see, e.g., FIGS. 4,6,7,8). ATDC had been shown previously to undergo phosphorylation on serine/threonine in A431 cells (see, e.g., Laderoute K R, et al., Int J Cancer 1996; 66: 772-778). It was hypothesized therefore that ATDC is a phosphorylation target of ATM and ATR. It is known that phosphorylation targets of ATM/ATR share a common motif, with either a serine or threonine residue, usually followed by a glutamine (the SQ or TQ motif) (see, e.g., Ziv Y, et al., Nature Cell Biol 2006; 8: 870-876). […] It was verified that ATDC functioned downstream of ATM, since silencing of ATDC had no effect on the phosphorylation of ATM in response to IR (FIG. 11A). […]

## Nc1ccn([C@@H]2O[C@H](CO)[C@@H](O)C2(F)F)c(=O)n1 [gemcitabine]
[1]
  time of induction of H2AX phosphorylation: ≤ 10 min
  time of return of H2AX phosphorylation to basal levels: 1 h
[1]; x hours
  H2AX phosphorylation: transient H2AX phosphorylation
[2]
  phosphorylation of p53 and Chk1: underwent phosphorylation
[3]
  ATDC nuclear foci formation: ATDC formed discrete nuclear foci
[4]
  phosphorylation of ATDC: induces

Source: patent publication US8088749B2, “Compositions and methods for treating cancer” (The Regents of the University of Michigan, priority 2007, dated 2012)
